Patent US9441012B2, “Fluorinated epoxyketone-based compounds and uses thereof as proteasome inhibitors” (FLUORINOV PHARMA INC., priority 2012, dated 2016)

Tests used:
Assay type in all cases: cell-based
SR = assay: NCI 60 human tumor cell line screen (SRB); settings: SR (Leukemia); 48 h
HOP-62 = assay: NCI 60 human tumor cell line screen (SRB); settings: HOP-62 (Non-Small Cell Lung Cancer); 48 h
RXF 393 = assay: NCI 60 human tumor cell line screen (SRB); settings: RXF 393 (Renal Cancer); 48 h
SN12C = assay: NCI 60 human tumor cell line screen (SRB); settings: SN12C (Renal Cancer); 48 h
T-47D = assay: NCI 60 human tumor cell line screen (SRB); settings: T-47D (Breast Cancer); 48 h
KMS-11 = assay: Cell viability assay (MTS); settings: Homo sapiens, 72 hours, mean ± standard deviation
Method: (§1) Human multiple myeloma cell lines 8226, H929, JJN3, KMH11, KMS11, KMS18, LP1, MM1S, OPM2 and U266 were grown in Iscove modified Dulbecco's medium (IMDM). Human leukemia cell lines K562, OCI-AML2 and U937 were cultured in RPMI-1640 medium. Primary peripheral blood mononuclear cells were isolated from multiple myeloma patients by Ficoll density gradient centrifugation and bone marrow aspirates were obtained from multiple myeloma patients at the Princess Margaret Cancer Centre of the University Health Network (UHN; Toronto, ON, Canada). Primary cells were cultured in IMDM. The collection and use of human tissue for this study were approved by the UHN institutional ethics review board. All cell culture media were obtained from the Ontario Cancer Institute Tissue Culture Media Facility (Toronto, ON, Canada) and were supplemented with 10% fetal calf serum, […] (Hyclone, Logan, Utah). All cells were grown in a humidified incubator at 37° C. with 5% CO2.
(§2) Cellular viability was primarily assessed by 3-(4,5-dimethylthiazol-2-yl)-5-(3-carboxymethoxyphenyl)-2-(4-sulfophenyl)-2H-tetrazolium (MTS) assay according to the manufacturer's instructions (Promega; Madison, Wis.). Cells were first seeded at a density of 10,000 cells per well in tissue culture-treated 96-well plates. Two hours after seeding, cells were treated with compounds for 72 hours at concentrations as indicated. As a control, cells were treated with DMSO alone in every assay plate. Following treatment and the MTS assay, cell viability was independently confirmed by reading the optical density (O.D.) at 490 nm and by exclusion of trypan blue stain (Invitrogen; Burlington, ON, Canada). The viability of primary mononuclear cells was determined by staining with Annexin V.
(§3) Table 9 summarizes data obtained for representative compounds of Formula I for cell viability and CT-L proteasome activity using OCI-AML-2 and KMS-11 cell lines.

OCI-AML-2 = assay: Cell viability assay (MTS); settings: Homo sapiens, OCI-AML2, 72 hours, mean ± standard deviation
Method: as §1, §2, §3

Row | SMILES | Log10GI50 (SR) | Log10LC50 (SR) | Log10TGI50 (SR) | Log10GI50 (HOP-62) | Log10LC50 (HOP-62) | Log10TGI50 (HOP-62) | Log10GI50 (RXF 393) | Log10LC50 (RXF 393) | Log10TGI50 (RXF 393) | Log10GI50 (SN12C) | Log10LC50 (SN12C) | Log10TGI50 (SN12C) | Log10GI50 (T-47D) | Log10TGI50 (T-47D) | IC50 (KMS-11) [nM] | IC50 (OCI-AML-2) [nM]
1 | CC(C)C[C@H](NC(=O)[C@H](Cc1ccccc1)NC(=O)[C@H](COC(F)F)NC(=O)CN1CCOCC1)C(=O)[C@@]1(C)CO1 [Example 25, (2S)-2-[[(2S)-3-(difluoromethoxy)-2-[(2-morpholinoacetyl)amino]propanoyl]amino]-N-[(1S)-3-methyl-1-[(2R)-2-methyloxirane-2-carbonyl]butyl]-3-phenyl-propanamide] | −7.71 | >−4.00 | >−4.00 | −7.75 | −7.09 | −7.42 | −7.64 | −6.70 | −7.25 | −7.39 | −5.15 | −6.67 | −7.78 | −7.46 | 39.5 ± 7.45 | 55.6 ± 19.2
2 | Cc1ncc(C(=O)N[C@@H](COC(F)F)C(=O)N[C@@H](COC(F)F)C(=O)N[C@@H](Cc2ccccc2)C(=O)[C@@]2(C)CO2)s1 [Example 1, 2-methyl-thiazole-5-carboxylic acid ((S)-1-{(S)-1-[(S)-1-benzyl-2-((R)-2-methyloxiranyl)-2-oxo-ethylcarbamoyl]-2-difluoromethoxyethylcarbamoyl}-2-difluoromethoxyethyl)-amide] | −7.30 | >−4.00 | >−4.00 | −6.41 | >−4.00 | >−4.00 | −6.79 | −6.02 | −6.41 | −6.54 | −4.03 | −5.29 | −6.59 | >−4.00 | 30.9 ± 10.7 | 109 ± 25.3
3 | C[C@]1(C(=O)[C@H](Cc2ccccc2)NC(=O)[C@H](COC(F)F)NC(=O)[C@H](COC(F)F)NC(=O)CN2CCOCC2)CO1 [Example 26, (S)-N-{(S)-1-[(S)-1-Benzyl-2-((R)-2-methyl-oxiranyl)-2-oxo-ethylcarbamoyl]-2-difluoromethoxyethyl}-3-difluoromethoxy-2-(2-morpholin-4-yl-acetylamino)-propio-namide] | −7.71 | >−4.00 | >−4.00 | −7.75 | −7.09 | −7.42 | −7.64 | −6.70 | −7.25 | −7.39 | −5.15 | −6.67 | −7.78 | −7.46 | 99.7 ± 17.7 | 223 ± 10.3
4 | C[C@]1(C(=O)[C@H](Cc2ccccc2)NC(=O)[C@H](Cc2ccccc2)NC(=O)[C@H](COC(F)F)NC(=O)CN2CCOCC2)CO1 [Example 29] | −7.69 | >−4.00 | −4.36 | −7.31 | −4.32 | −6.53 | −7.20 | −6.31 | −6.70 | −6.92 | −4.39 | −6.38 | −7.16 | −6.62 | 60.4 ± 11.2 | 75.9 ± 15
